According to patent US20080009418A1, “Selective Inhibitors” (Alchemia LTD., priority 2004, published 2008):

What was measured:
Conditions in all cases: compound at 10 μM
Human neurokinin (NK1) = biological target: T1, Human neurokinin (NK1) (Homo sapiens, UniProt P25103); assay: Radioligand binding, human neurokinin NK1 membranes, filtration, [125I]-Substance P
T1 construct: purchased Perkin Elmer Biosignal
Method in brief: (§1)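 Membranes from cloned human receptors were incubated with compound and radioligand for 1 hour at room temperature. Bound ligand was collected on 0.3% PEI-soaked filters, washed with cold 50 mM Tris-HCl pH 7.4, and counted by scintillation. Percent inhibition was computed against DMSO totals and reference-ligand nonspecific wells.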

Human μ-opioid (MOP) = biological target: T2, Human μ-opioid (MOP) (Homo sapiens, UniProt P35372); assay: Radioligand binding, human μ-opioid (MOP) membranes, FlashPlate, [3H]-Naloxone
T2 construct: purchased Perkin Elmer Biosignal
T2 sequence (P35372 whole entry): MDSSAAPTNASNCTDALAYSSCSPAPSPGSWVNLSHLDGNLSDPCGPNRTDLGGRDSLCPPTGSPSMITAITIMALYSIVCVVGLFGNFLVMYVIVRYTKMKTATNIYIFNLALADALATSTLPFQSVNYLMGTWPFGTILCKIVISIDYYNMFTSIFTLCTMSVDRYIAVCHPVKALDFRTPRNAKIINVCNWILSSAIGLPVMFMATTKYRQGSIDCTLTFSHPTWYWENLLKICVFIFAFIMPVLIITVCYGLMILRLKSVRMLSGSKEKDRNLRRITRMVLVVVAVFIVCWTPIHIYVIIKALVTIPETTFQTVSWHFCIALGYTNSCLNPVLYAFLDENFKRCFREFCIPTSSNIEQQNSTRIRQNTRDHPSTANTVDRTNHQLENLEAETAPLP
Method in brief: (§2)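 Cloned human receptor membranes were coated onto FlashPlate wells and incubated with radioligand and compound (added from a 0.5 mM DMSO daughter plate) for 1 hour at room temperature in the dark. Scintillation counting gave percent inhibition, with DMSO defining total and reference ligand defining non-specific binding.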

[1] = biological target: T3, Human neuropeptide Y (NPY-Y1) (Homo sapiens, UniProt P25929); assay: Radioligand binding, human neuropeptide Y NPY-Y1 membranes, FlashPlate, [125I]-PYY
T3 construct: purchased Perkin Elmer Biosignal
T3 sequence (P25929 1-384): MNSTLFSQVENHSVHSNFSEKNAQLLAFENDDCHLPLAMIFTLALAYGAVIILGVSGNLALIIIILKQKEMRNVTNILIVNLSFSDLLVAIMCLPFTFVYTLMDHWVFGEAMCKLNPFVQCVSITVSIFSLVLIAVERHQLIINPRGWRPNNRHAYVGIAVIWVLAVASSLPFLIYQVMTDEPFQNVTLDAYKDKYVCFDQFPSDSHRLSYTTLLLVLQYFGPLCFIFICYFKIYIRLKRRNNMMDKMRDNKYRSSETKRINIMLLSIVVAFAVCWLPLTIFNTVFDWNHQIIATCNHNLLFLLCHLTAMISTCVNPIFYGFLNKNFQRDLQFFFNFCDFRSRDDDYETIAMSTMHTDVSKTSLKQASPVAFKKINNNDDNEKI
Method in brief: as §2

[2] = biological target: T4, Human melanin-concentrating hormone (MCH1) (Homo sapiens, UniProt Q99705); assay: Radioligand binding, human melanin-concentrating hormone MCH1 membranes, FlashPlate, [125I]-S36057
T4 construct: purchased Perkin Elmer Biosignal
T4 sequence (Q99705 whole entry): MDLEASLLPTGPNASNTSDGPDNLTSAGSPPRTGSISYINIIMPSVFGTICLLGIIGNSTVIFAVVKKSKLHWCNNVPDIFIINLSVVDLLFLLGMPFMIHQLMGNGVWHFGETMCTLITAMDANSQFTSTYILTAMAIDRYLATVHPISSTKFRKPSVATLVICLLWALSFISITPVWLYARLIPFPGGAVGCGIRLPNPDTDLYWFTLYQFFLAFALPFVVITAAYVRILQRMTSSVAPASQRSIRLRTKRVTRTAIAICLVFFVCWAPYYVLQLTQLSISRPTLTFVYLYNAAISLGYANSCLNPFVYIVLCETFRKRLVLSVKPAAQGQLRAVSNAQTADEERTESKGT
Method in brief: as §2

Human κ-Opioid (KOP) = biological target: T5, Human κ-Opioid (KOP) (Homo sapiens, UniProt P41145); assay: Radioligand binding, human κ-opioid (KOP) membranes, filtration, [3H]-Diprenorphine
T5 construct: purchased Perkin Elmer Biosignal
T5 sequence (P41145 whole entry): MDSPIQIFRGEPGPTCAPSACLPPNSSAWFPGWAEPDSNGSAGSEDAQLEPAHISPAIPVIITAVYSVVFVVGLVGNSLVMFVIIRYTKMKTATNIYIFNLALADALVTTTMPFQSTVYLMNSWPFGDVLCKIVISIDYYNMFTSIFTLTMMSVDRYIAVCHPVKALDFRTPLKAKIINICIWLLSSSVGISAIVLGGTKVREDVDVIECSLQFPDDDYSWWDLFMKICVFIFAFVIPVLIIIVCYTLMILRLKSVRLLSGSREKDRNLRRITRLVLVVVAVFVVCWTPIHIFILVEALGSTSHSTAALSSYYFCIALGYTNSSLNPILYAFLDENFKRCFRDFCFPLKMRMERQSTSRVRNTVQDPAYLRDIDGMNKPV
Method in brief: as §1

Human melanocortin (MC5) = biological target: T6, Human melanocortin (MC5) (Homo sapiens, UniProt P33032); assay: Radioligand binding, human melanocortin MC5 membranes, FlashPlate, [125I]-NDP-αMSH
T6 construct: purchased Perkin Elmer Biosignal
T6 sequence (P33032 whole entry): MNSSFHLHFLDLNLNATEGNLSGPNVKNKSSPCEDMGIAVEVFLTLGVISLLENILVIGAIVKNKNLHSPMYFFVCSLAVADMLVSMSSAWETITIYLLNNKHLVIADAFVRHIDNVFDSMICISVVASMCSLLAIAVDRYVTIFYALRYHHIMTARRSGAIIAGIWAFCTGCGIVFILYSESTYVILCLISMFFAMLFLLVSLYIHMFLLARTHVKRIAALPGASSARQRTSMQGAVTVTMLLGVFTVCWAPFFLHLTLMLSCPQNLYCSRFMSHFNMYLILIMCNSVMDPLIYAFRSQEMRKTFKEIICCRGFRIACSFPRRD
Method in brief: as §2

Human opioid (ORL1) = biological target: T7, Human opioid (ORL1) (Homo sapiens, UniProt P41146); assay: Radioligand binding, human opioid ORL1 membranes, FlashPlate, [125I]-Nociceptin
T7 construct: purchased Perkin Elmer Biosignal
T7 sequence (P41146 whole entry): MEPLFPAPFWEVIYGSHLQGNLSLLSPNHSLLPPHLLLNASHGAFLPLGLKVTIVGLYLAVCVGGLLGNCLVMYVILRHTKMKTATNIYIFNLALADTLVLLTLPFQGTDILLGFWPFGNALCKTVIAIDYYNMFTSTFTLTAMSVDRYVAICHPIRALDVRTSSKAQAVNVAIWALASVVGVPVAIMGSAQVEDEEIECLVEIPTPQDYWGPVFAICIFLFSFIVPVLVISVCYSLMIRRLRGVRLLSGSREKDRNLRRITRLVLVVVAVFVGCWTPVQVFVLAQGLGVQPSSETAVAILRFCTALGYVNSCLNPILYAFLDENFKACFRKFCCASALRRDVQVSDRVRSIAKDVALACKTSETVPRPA
Method in brief: as §2

Mouse urotensin (mUR2) = biological target: T8, Mouse urotensin (mUR2) (Mus musculus, UniProt Q8VIH9); assay: Radioligand binding, mouse urotensin mUR2 membranes, FlashPlate, [125I]-Urotensin II
T8 construct: purchased Perkin Elmer Biosignal
T8 sequence (Q8VIH9 1-385): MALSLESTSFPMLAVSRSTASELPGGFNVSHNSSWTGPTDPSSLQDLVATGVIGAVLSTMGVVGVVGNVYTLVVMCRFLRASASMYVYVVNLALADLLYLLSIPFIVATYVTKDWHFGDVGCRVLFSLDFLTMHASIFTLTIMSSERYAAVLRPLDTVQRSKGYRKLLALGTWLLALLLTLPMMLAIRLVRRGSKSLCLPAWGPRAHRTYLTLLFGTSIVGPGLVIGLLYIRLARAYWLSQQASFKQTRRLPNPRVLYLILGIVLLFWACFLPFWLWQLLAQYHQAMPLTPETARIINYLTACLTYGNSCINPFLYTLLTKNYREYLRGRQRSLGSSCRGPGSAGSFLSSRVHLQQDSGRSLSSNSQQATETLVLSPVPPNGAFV
Method in brief: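 Cloned mouse urotensin (mUR2) receptor membranes from Perkin Elmer Biosignal were immobilized in FlashPlate microplates using a proprietary coating. Each well got 19.5 μl buffer, then 0.5 μl of DMSO, reference ligand, or compound. Adding 5 μl of [125I]-Urotensin II, diluted to 5× final concentration in binding buffer, started binding. Plates were sealed with TopSeal-A and incubated 1 hour at room temperature in the dark. Wells were counted for 30 seconds each on a TopCount after a 60-second delay, and percentage inhibition was calculated.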

Human δ-opioid (DOP) = biological target: T9, Human δ-opioid (DOP) (Homo sapiens, UniProt P41143); assay: Radioligand binding, human δ-opioid (DOP) membranes, FlashPlate, [3H]-Bremazocine
T9 construct: purchased Perkin Elmer Biosignal
T9 sequence (P41143 whole entry): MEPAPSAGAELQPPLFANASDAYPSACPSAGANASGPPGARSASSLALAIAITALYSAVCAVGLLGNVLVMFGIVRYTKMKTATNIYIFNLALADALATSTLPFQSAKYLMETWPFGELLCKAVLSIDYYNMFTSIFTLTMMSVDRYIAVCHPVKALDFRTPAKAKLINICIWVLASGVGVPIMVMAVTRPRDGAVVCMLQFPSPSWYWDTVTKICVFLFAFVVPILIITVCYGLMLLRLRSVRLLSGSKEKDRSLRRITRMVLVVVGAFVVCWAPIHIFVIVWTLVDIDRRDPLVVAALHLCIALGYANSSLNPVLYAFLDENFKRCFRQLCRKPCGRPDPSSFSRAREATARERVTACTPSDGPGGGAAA
Method in brief: as §2

Human Melanocortin (MC3) = biological target: T10, Human Melanocortin (MC3) (Homo sapiens, UniProt P41968); assay: Radioligand binding, human melanocortin MC3 membranes, FlashPlate, [125I]-NDP-αMSH
T10 construct: purchased Perkin Elmer Biosignal
T10 sequence (P41968 whole entry): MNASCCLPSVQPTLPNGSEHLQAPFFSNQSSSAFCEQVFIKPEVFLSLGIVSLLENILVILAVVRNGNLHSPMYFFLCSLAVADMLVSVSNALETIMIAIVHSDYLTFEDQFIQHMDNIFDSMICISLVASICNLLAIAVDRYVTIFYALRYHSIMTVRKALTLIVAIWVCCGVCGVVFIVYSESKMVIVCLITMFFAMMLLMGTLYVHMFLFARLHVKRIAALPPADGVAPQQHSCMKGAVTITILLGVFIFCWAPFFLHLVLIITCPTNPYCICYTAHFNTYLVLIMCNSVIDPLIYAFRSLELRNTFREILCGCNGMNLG
Method in brief: as §2

Human Melanocortin (MC4) = biological target: T11, Human Melanocortin (MC4) (Homo sapiens, UniProt P32245); assay: Radioligand binding, human melanocortin MC4 membranes, FlashPlate, [125I]-NDP-αMSH
T11 construct: purchased Perkin Elmer Biosignal
T11 sequence (P32245 whole entry): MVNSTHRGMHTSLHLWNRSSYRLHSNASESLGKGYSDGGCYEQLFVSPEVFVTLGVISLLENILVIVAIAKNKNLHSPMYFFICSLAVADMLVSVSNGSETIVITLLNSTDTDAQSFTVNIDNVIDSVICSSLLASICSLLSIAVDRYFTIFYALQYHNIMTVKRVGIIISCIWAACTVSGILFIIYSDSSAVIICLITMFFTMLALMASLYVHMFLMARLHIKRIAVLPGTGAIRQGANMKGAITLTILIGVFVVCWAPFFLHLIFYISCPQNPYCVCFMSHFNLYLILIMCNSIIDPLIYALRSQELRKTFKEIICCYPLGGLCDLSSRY
Method in brief: as §2

T1 sequence (P25103 whole entry): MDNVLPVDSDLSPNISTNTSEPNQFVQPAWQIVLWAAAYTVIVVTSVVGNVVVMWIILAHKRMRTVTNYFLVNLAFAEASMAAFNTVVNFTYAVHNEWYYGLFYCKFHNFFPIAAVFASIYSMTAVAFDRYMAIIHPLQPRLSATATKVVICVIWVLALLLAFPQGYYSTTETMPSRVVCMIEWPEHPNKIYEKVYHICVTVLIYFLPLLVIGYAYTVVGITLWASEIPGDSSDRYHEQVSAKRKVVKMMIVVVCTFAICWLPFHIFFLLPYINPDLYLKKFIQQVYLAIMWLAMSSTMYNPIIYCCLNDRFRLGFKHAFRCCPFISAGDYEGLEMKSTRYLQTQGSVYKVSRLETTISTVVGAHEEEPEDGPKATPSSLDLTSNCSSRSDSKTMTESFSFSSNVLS

## NCCCC(=O)NC1C(OCc2ccc(Cl)cc2)OC(COCc2ccc3ccccc3c2)C(O)C1OCc1ccc(Cl)cc1 (single isomer, unassigned) [compound 489]
Human neurokinin (NK1); [125I]-Substance P
  A8: inhibition of radioligand binding, human neurokinin (NK1): + (“+” indicates greater than 50% inhibition at 10 μM)
Human μ-opioid (MOP); [3H]-Naloxone
  A7: inhibition of radioligand binding, human μ-opioid (MOP): + (“+” indicates greater than 50% inhibition at 10 μM)
[1]; [125I]-PYY
  A9: inhibition of radioligand binding, human neuropeptide Y (NPY-Y1): − (“−” indicates less than 50% inhibition at 10 μM)
[2]; [125I]-S36057, 10 µM
  A6: inhibition of radioligand binding, human melanin-concentrating hormone (MCH1): − (“−” indicates less than 50% inhibition at 10 μM)
Human κ-Opioid (KOP); [3H]-Diprenorphine
  A2: inhibition of radioligand binding, human κ-opioid (KOP): − (“−” indicates less than 50% inhibition at 10 μM)
Human melanocortin (MC5); [125I]-NDP-αMSH
  A5: inhibition of radioligand binding, human melanocortin (MC5): + (“+” indicates greater than 50% inhibition at 10 μM)
Human opioid (ORL1); [125I]-Nociceptin
  A10: inhibition of radioligand binding, human opioid (ORL1): + (“+” indicates greater than 50% inhibition at 10 μM)
Mouse urotensin (mUR2); [125I]-Urotensin II
  A11: inhibition of radioligand binding, mouse urotensin (mUR2): − (“−” indicates less than 50% inhibition at 10 μM)
Human δ-opioid (DOP); [3H]-Bremazocine
  A1: inhibition of radioligand binding, human δ-opioid (DOP): − (“−” indicates less than 50% inhibition at 10 μM)
Human Melanocortin (MC3); [125I]-NDP-αMSH
  A3: inhibition of radioligand binding, human melanocortin (MC3): + (“+” indicates greater than 50% inhibition at 10 μM)
Human Melanocortin (MC4); [125I]-NDP-αMSH
  A4: inhibition of radioligand binding, human melanocortin (MC4): + (“+” indicates greater than 50% inhibition at 10 μM)

## CO[C@H]1[C@H](O)[C@@H](COCc2ccc(-c3ccccc3)cc2)OC(OCc2ccc3ccccc3c2)[C@@H]1NC(=O)CCCN (stereo partly shown) [compound 68]
Human neurokinin (NK1); human neurokinin NK1 membranes
  A8 radioligand binding inhibition: + (“+” indicates greater than 50% inhibition at 10 μM)
Human μ-opioid (MOP); human μ-opioid (MOP) membranes
  A7 radioligand binding inhibition: − (“−” indicates less than 50% inhibition at 10 μM)
[1]; human NPY-Y1 membranes
  A9 radioligand binding inhibition: − (“−” indicates less than 50% inhibition at 10 μM)
[2]; human MCH1 membranes
  A6 radioligand binding inhibition: + (“+” indicates greater than 50% inhibition at 10 μM)
Human κ-Opioid (KOP); human κ-opioid (KOP) membranes
  A2 radioligand binding inhibition: − (“−” indicates less than 50% inhibition at 10 μM)
Human melanocortin (MC5); human melanocortin MC5 membranes
  A5 radioligand binding inhibition: + (“+” indicates greater than 50% inhibition at 10 μM)
Human opioid (ORL1); human ORL1 membranes
  A10 radioligand binding inhibition: − (“−” indicates less than 50% inhibition at 10 μM)
Mouse urotensin (mUR2); mouse urotensin mUR2 membranes
  A11 radioligand binding inhibition: − (“−” indicates less than 50% inhibition at 10 μM)
Human δ-opioid (DOP); human δ-opioid (DOP) membranes
  A1 radioligand binding inhibition: − (“−” indicates less than 50% inhibition at 10 μM)
Human Melanocortin (MC3); human melanocortin MC3 membranes
  A3 radioligand binding inhibition: + (“+” indicates greater than 50% inhibition at 10 μM)
Human Melanocortin (MC4); human melanocortin MC4 membranes
  A4 radioligand binding inhibition: + (“+” indicates greater than 50% inhibition at 10 μM)

## N=C(N)NCC(=O)NC1C(OCc2ccc(-c3ccccc3)cc2)OC(COCc2ccc3ccccc3c2)C(O)C1OCc1ccc(-c2ccccc2)cc1 (stereo not shown) [compound 405]
Human neurokinin (NK1); [125I]-Substance P, human NK1 membranes
  A8: inhibition of radioligand binding: + (“+” indicates greater than 50% inhibition at 10 μM)
Human μ-opioid (MOP); [3H]-Naloxone, human MOP membranes
  A7: inhibition of radioligand binding: − (“−” indicates less than 50% inhibition at 10 μM)
[1]; [125I]-PYY, human NPY-Y1 membranes
  A9: inhibition of radioligand binding: − (“−” indicates less than 50% inhibition at 10 μM)
[2]; [125I]-S36057, human MCH1 membranes
  A6: inhibition of radioligand binding: − (“−” indicates less than 50% inhibition at 10 μM)
Human κ-Opioid (KOP); [3H]-Diprenorphine, human KOP membranes
  A2: inhibition of radioligand binding: − (“−” indicates less than 50% inhibition at 10 μM)
Human melanocortin (MC5); [125I]-NDP-αMSH, human MC5 membranes
  A5: inhibition of radioligand binding: + (“+” indicates greater than 50% inhibition at 10 μM)
Human opioid (ORL1); [125I]-Nociceptin, human ORL1 membranes
  A10: inhibition of radioligand binding: − (“−” indicates less than 50% inhibition at 10 μM)
Mouse urotensin (mUR2); [125I]-Urotensin II, mouse mUR2 membranes
  A11: inhibition of radioligand binding: − (“−” indicates less than 50% inhibition at 10 μM)
Human δ-opioid (DOP); [3H]-Bremazocine, human DOP membranes
  A1: inhibition of radioligand binding: − (“−” indicates less than 50% inhibition at 10 μM)
Human Melanocortin (MC3); [125I]-NDP-αMSH, human MC3 membranes
  A3: inhibition of radioligand binding: + (“+” indicates greater than 50% inhibition at 10 μM)
Human Melanocortin (MC4); [125I]-NDP-αMSH, human MC4 membranes
  A4: inhibition of radioligand binding: − (“−” indicates less than 50% inhibition at 10 μM)

## NCCC(=O)NC1O[C@H](CO)[C@@H](O)[C@H](OCc2cccc3ccccc23)[C@H]1NC(=O)c1ccccc1 (stereo partly shown) [compound 358]
Human neurokinin (NK1); [125I]-Substance P
  A8: inhibition of radioligand binding, human neurokinin (NK1): − (“−” indicates less than 50% inhibition at 10 μM)
Human μ-opioid (MOP); [3H]-Naloxone
  A7: inhibition of radioligand binding, human μ-opioid (MOP): − (“−” indicates less than 50% inhibition at 10 μM)
[1]; [125I]-PYY
  A9: inhibition of radioligand binding, human neuropeptide Y (NPY-Y1): + (“+” indicates greater than 50% inhibition at 10 μM)
[2]; [125I]-S36057
  A6: inhibition of radioligand binding, human melanin-concentrating hormone (MCH1): − (“−” indicates less than 50% inhibition at 10 μM)
Human κ-Opioid (KOP); [3H]-Diprenorphine
  A2: inhibition of radioligand binding, human κ-opioid (KOP): − (“−” indicates less than 50% inhibition at 10 μM)
Human melanocortin (MC5); [125I]-NDP-αMSH
  A5: inhibition of radioligand binding, human melanocortin (MC5): − (“−” indicates less than 50% inhibition at 10 μM)
Human opioid (ORL1); [125I]-Nociceptin
  A10: inhibition of radioligand binding, human opioid (ORL1): − (“−” indicates less than 50% inhibition at 10 μM)
Mouse urotensin (mUR2); [125I]-Urotensin II
  A11: inhibition of radioligand binding, mouse urotensin (mUR2): − (“−” indicates less than 50% inhibition at 10 μM)
Human δ-opioid (DOP); [3H]-Bremazocine
  A1: inhibition of radioligand binding, human δ-opioid (DOP): − (“−” indicates less than 50% inhibition at 10 μM)
Human Melanocortin (MC3); [125I]-NDP-αMSH
  A3: inhibition of radioligand binding, human melanocortin (MC3): − (“−” indicates less than 50% inhibition at 10 μM)
Human Melanocortin (MC4); [125I]-NDP-αMSH
  A4: inhibition of radioligand binding, human melanocortin (MC4): − (“−” indicates less than 50% inhibition at 10 μM)

## COCC1OC(OCc2ccccc2)C(NC(=O)CNC(=N)N)C(OCc2ccc(-c3ccccc3)cc2)C1O (stereo not shown) [compound 183]
Human neurokinin (NK1); [125I]-Substance P
  A8 radioligand binding, percentage inhibition: + (“+” indicates greater than 50% inhibition at 10 μM)
Human μ-opioid (MOP); [3H]-Naloxone
  A7 radioligand binding, percentage inhibition: − (“−” indicates less than 50% inhibition at 10 μM)
[1]; [125I]-PYY
  A9 radioligand binding, percentage inhibition: − (“−” indicates less than 50% inhibition at 10 μM)
[2]; [125I]-S36057
  A6 radioligand binding, percentage inhibition: + (“+” indicates greater than 50% inhibition at 10 μM)
Human κ-Opioid (KOP); [3H]-Diprenorphine
  A2 radioligand binding, percentage inhibition: − (“−” indicates less than 50% inhibition at 10 μM)
Human melanocortin (MC5); [125I]-NDP-αMSH
  A5 radioligand binding, percentage inhibition: + (“+” indicates greater than 50% inhibition at 10 μM)
Human opioid (ORL1); [125I]-Nociceptin
  A10 radioligand binding, percentage inhibition: − (“−” indicates less than 50% inhibition at 10 μM)
Mouse urotensin (mUR2); [125I]-Urotensin II
  A11 radioligand binding, percentage inhibition: − (“−” indicates less than 50% inhibition at 10 μM)
Human δ-opioid (DOP); [3H]-Bremazocine
  A1 radioligand binding, percentage inhibition: − (“−” indicates less than 50% inhibition at 10 μM)
Human Melanocortin (MC3); [125I]-NDP-αMSH
  A3 radioligand binding, percentage inhibition: − (“−” indicates less than 50% inhibition at 10 μM)
Human Melanocortin (MC4); [125I]-NDP-αMSH
  A4 radioligand binding, percentage inhibition: + (“+” indicates greater than 50% inhibition at 10 μM)
